The text below walks through data of patent publication US7109193B2, “Tricyclic diazepines tocolytic oxytocin receptor antagonists” (Wyeth, priority 2001, dated 2006).

In this assay the target is T1, human vasopressin V2 receptor subtype (Homo sapiens, UniProt P30518).
T1 construct: host or cells: CHO cells (pZeoSV vector)
Put plainly: Vasopressin binding in Chinese Hamster Ovary cell membranes expressing human vasopressin V2 subtype receptors. The following applies: 100 nM, CHO cell membranes, [3H]arginine vasopressin, values without parentheses. On the procedure:
Vasopressin Binding in Chinese Hamster Ovary Cell Membranes Expressing Human Vasopressin V2 Subtype Receptors
Chinese Hamster Ovary (CHO) cells stably transfected with the human V2 subtype receptors were obtained from M. Thibonnier, Case Western Reserve University School of Medicine, Cleveland, Ohio.
A. Passaging and Amplification of Cells:
The trypsin is removed by aspiration and the cells dislodged by tapping. Cell Culture medium (e.g. 30 mL for 1:30 split) is immediately added and mixed well to inactivate trypsin. 1 mL of detached cells is added to new culture flasks containing fresh Cell Culture medium (e.g. into 25 mL per T-150 flask), and mixed gently. The cells are incubated at 37° C. in 5% CO2. The medium is changed at 3 to 4 day interval (or as appropriate). […] All steps are done under sterile conditions. B. Membrane Preparation: The cells are washed twice gently with Hank's Balanced Salt solution (e.g. use 10 mL per T-150 flask). […] The contents are transferred to centrifuge tubes (50 mL) kept in ice bath. All subsequent steps are done at 4° C. The tubes are centrifuged at 300×g for 15 min (1380 rpm on SORVAL, Model RT6000D, using the rotor for 50 mL tubes). The supernatant is discarded and the cells suspended in homogenizing buffer (10 mM Tris-HCl containing 0.25 M sucrose and 1 mM EDTA, pH 7.4) ensuring that the volume of the buffer is about ten times the volume of the cell pellet. The cells are pooled into a centrifuge tube (50 mL) and homogenized with a Polytron at setting 6 for 10 sec. The homogenate is transferred into a Potter-Elvjehm homogenizer and homogenized with 3 strokes. The homogenate is centrifuged at 1500×g for 60 min at 4° C. (3100 rpm using SORVAL, model RT6000D, using the rotor for 50 mL tubes). The pellet is discarded. The supernatant is centrifuged at 100,000×g for 60 min. at 4° C. (Beckman L8-80M ultracentrifuge; spin at 37,500 rpm with rotor type 70 Ti for 50 mL tubes; 38,000 rpm with type 80Ti for 15 mL tubes; or 35,800 rpm with rotor type 45Ti). The supernantant is discarded and the pellet suspended in 3 to 4 mL of Tris buffer (50 mM TRIS-HCl, pH 7.4). The protein content is estimated by the Bradford or Lowry method. The volume of the membrane suspension is adjusted with the membrane buffer (50 mM Tris-HCl containing 0.1% BSA and 0.1 mM PMSF) to give 3.0 mg/mL (or as appropriate) of protein. The membranes are aliquoted and stored at −70° C. C. Radioligand Binding Assay: In wells of a 96-well format microtiter plate, is added 90, 110 or 130 μL (to make up a final volume of 200 μL) of assay buffer containing 50 mM of Tris-HCl (pH 7.4), […], 1 mg % aprotinin, 1 mg % leupeptin, 2 mg % 1,10-phenanthroline, 10 mg % trypsin inhibitor, and 0.1 mM PMSF. The inhibitors are added on the day of the experiment. The components are mixed at room temperature, and then kept in ice bath following adjustment of the pH to 7.4. […] For vasopressin and other peptide ligands 20 μL of 50% DMSO is added and the assay buffer volume is adjusted accordingly. To each well is added 50 μL of frozen membrane suspension thawed immediately prior to use and diluted in assay buffer to the required concentration (equivalent to 25 to 50 μg of protein/well as needed). 20 μL of 8 nM [^3H]arginine vasopressin ligand in the assay buffer, prepared just before use is added and incubated at room temperature for 60 min. shaking the plate on a mechanical shaker for the first 15 min. The incubation is stopped by rapid filtration of the plate contents followed by wash with ice-cold buffer (50 mM Tris-HCl, pH 7.4) using a cell harvester (Tomtek and Printed filtermat-B filter paper). The filter paper is thoroughly dried (7–12 min. in a microwave oven) and impregnated with MeltiLex B/H melt-on scintillation wax sheets and the radioactivity counted in a betaplate scintillation counter.

T1 sequence (P30518 whole entry): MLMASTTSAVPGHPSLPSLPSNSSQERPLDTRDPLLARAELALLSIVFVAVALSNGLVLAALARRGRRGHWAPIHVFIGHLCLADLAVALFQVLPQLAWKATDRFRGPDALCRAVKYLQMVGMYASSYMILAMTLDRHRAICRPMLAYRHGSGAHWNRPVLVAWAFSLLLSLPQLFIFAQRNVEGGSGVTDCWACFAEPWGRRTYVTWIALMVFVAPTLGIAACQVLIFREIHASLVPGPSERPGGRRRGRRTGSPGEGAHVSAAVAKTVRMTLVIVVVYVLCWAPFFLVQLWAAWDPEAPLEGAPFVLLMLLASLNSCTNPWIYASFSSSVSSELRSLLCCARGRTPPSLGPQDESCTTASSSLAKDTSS

By inhibition is commonly meant the change of the read-out against control, counted positive when it falls. On to `COc1cccc(-c2ccc(C(=O)N3Cc4ccc(C(=O)N5CCC(N6CCCC6)CC5)n4Cc4ccccc43)cc2C)c1` [Example 139, {10-[(3′-Methoxy-2-methyl[1,1′-biphenyl]-4-yl)carbonyl]-10,11-dihydro-5H-pyrrolo[2,1-c][1,4]benzodiazepin-3-yl}[4-(1-pyrrolidinyl)-1-piperidinyl]methanone], for which the inhibition at 0.1 µM stood at 12%.

`COc1ccccc1-c1ccc(C(=O)N2Cc3ccc(C(=O)N4CCC(N5CCCC5)CC4)n3Cc3ccccc32)cc1` [Example 140, {10-[(2′-Methoxy[1,1′-biphenyl]-4-yl)carbonyl]-10,11-dihydro-5H-pyrrolo[2,1-c][1,4]benzodiazepin-3-yl}[4-(1-pyrrolidinyl)-1-piperidinyl]methanone]: the inhibition at 0.1 µM was found to be 29%.

In the case of `Cc1ccccc1-c1ccc(C(=O)N2Cc3ccc(C(=O)N4CCC(N5CCCC5)CC4)n3Cc3ccccc32)cc1` [Example 141, {10-[(2′-Methyl[1,1′-biphenyl]-4-yl)carbonyl]-10,11-dihydro-5H-pyrrolo[2,1-c][1,4]benzodiazepin-3-yl}[4-(1-pyrrolidinyl)-1-piperidinyl]methanone], the inhibition at 0.1 µM was 8%.

As to `COc1cc(C(=O)N2Cc3ccc(C(=O)N4CCC(N5CCCC5)CC4)n3Cc3ccccc32)ccc1-c1ccccc1C` [Example 142, {10-[(2-Methoxy-2′-methyl[1,1′-biphenyl]-4-yl)carbonyl]-10,11-dihydro-5H-pyrrolo[2,1-c][1,4]benzodiazepin-3-yl}[4-(1-pyrrolidinyl)-1-piperidinyl]methanone], the inhibition at 0.1 µM is -5%. Same read-out and setting: the result for `COc1cccc(-c2cc(OC)c(C(=O)N3Cc4ccc(C(=O)N5CCC(N6CCCC6)CC5)n4Cc4ccccc43)cc2Cl)c1` [Example 143, {10-[(6-Chloro-3,3′-dimethoxy[1,1′-biphenyl]-4-yl)carbonyl]-10,11-dihydro-5H-pyrrolo[2,1-c][1,4]benzodiazepin-3-yl}[4-(1-pyrrolidinyl)-1-piperidinyl]methanone] reads 7%; that for `COc1cc(C(=O)N2Cc3ccc(C(=O)N4CCC(N5CCCC5)CC4)n3Cc3ccccc32)ccc1-c1cccc2ccccc12` [Example 144, {10-[3-Methoxy-4-(1-naphthyl)benzoyl]-10,11-dihydro-5H-pyrrolo[2,1-c][1,4]benzodiazepin-3-yl}[4-(1-pyrrolidinyl)-1-piperidinyl]methanone], 3%. Regarding `COc1ccccc1-c1ccc(C(=O)N2Cc3ccc(C(=O)N4CCC(N5CCCC5)CC4)n3Cc3ccccc32)cc1OC` [Example 145, {10-[(2,2′-Dimethoxy[1,1′-biphenyl]4-yl)carbonyl]-10,11-dihydro-5H-pyrrolo[2,1-c][1,4]benzodiazepin-3-yl}[4-(1-pyrrolidinyl)-l-piperidinyl]methanone], the “V2 % inhibition @ 100 nM” value is −5%. Turning to `COc1cccc(-c2ccc(C(=O)N3Cc4ccc(C(=O)N5CCC(N6CCCC6)CC5)n4Cc4ccccc43)cc2OC)c1` [Example 146, {10-[(2,3′-Dimethoxy[1,1′-biphenyl]-4-yl)carbonyl]-10,11-dihydro-5H-pyrrolo[2,1-c][1,4]benzodiazepin-3-yl}[4-(1-pyrrolidinyl)-1-piperidinyl]methanone], the inhibition at 0.1 µM was found to be 12%. In the case of `O=C(c1ccc2n1Cc1ccccc1N(C(=O)c1ccc(-c3cccc4ccccc34)cc1Cl)C2)N1CCC(N2CCCC2)CC1` [Example 147, {10-[2-Chloro-4-(1-naphthyl)benzoyl]-10,11-dihydro-5H-pyrrolo[2,1-c][1,4]benzodiazepin-3-yl}[4-(1-pyrrolidinyl)-1-piperidinyl]methanone], the inhibition at 0.1 µM was 20%. In the case of `Cc1cc(C(=O)N2Cc3ccc(C(=O)N4CCC(N5CCCC5)CC4)n3Cc3ccccc32)ccc1-c1ccccc1C(F)(F)F` [Example 148, (10-{[2-Methyl-2′-(trifluoromethyl)[1,1′-biphenyl]-4-yl]carbonyl}-10,11-dihydro-5H-pyrrolo[2,1-c][1,4]benzodiazepin-3-yl)[4-(1-pyrrolidinyl)-1-piperidinyl]methanone], the inhibition at 0.1 µM was 1%. For `COc1ccccc1-c1ccc(C(=O)N2Cc3ccc(C(=O)NCCN4CCCCC4)n3Cc3ccccc32)cc1C` [Example 149, 10-[(2′-Methoxy-2-methyl[1,1′-biphenyl]-4-yl)carbonyl]-N-[2-(1-piperidinyl)ethyl]-10,11-dihydro-5H-pyrrolo[2,1-c][1,4]benzodiazepine-3-carboxamide], the inhibition at 0.1 µM stood at 20%.

On to `Cc1ccccc1-c1ccc(C(=O)N2Cc3ccc(C(=O)NCCN4CCCCC4)n3Cc3ccccc32)cc1C` [Example 150, 10-[(2,2′-Dimethyl[1,1′-biphenyl]-4-yl)carbonyl]-N-[2-(1-piperidinyl)ethyl]-10,11-dihydro-5H-pyrrolo[2,1-c][1,4]benzodiazepine-3-carboxamide], for which the inhibition at 0.1 µM came out at 18%. With `COc1cccc(-c2ccc(C(=O)N3Cc4ccc(C(=O)NCCN5CCCCC5)n4Cc4ccccc43)cc2C)c1` [Example 151, 10-[(3′-Methoxy-2-methyl[1,1′-biphenyl]-4-yl)carbonyl]-N-[2-(1-piperidinyl)ethyl]-10,11-dihydro-5H-pyrrolo[2,1-c][1,4]benzodiazepine-3-carboxamide], the inhibition at 0.1 µM stood at 6%.

As to `COc1ccccc1-c1ccc(C(=O)N2Cc3ccc(C(=O)NCCN4CCCCC4)n3Cc3ccccc32)cc1` [Example 152, 10-[(2′-Methoxy[1,1′-biphenyl]-4-yl)carbonyl]-N-[2-(1-piperidinyl)ethyl]-10,11-dihydro-5H-pyrrolo[2,1-c][1,4]benzodiazepine-3-carboxamide], the inhibition at 0.1 µM turned out to be 10%. Still for that read-out and setting: then `Cc1ccccc1-c1ccc(C(=O)N2Cc3ccc(C(=O)NCCN4CCCCC4)n3Cc3ccccc32)cc1` [Example 153, 10-[(2′-Methyl[1,1′-biphenyl]-4-yl)carbonyl]-N-[2-(1-piperidinyl)ethyl]-10,11-dihydro-5H-pyrrolo[2,1-c][1,4]benzodiazepine-3-carboxamide], with 11%; and `COc1cc(C(=O)N2Cc3ccc(C(=O)NCCN4CCCCC4)n3Cc3ccccc32)ccc1-c1ccccc1C` [Example 154, 10-[(2-Methoxy-2′-methyl[1,1′-biphenyl]4-yl)carbonyl]-N-[2-(1-piperidinyl)ethyl]-10,11-dihydro-5H-pyrrolo[2,1-c][1,4]benzodiazepine-3-carboxamide], with 9%; and `COc1cc(-c2ccccc2C)c(Cl)cc1C(=O)N1Cc2ccc(C(=O)NCCN3CCCCC3)n2Cc2ccccc21` [Example 155, 10-[(6-Chloro-3-methoxy-2′-methyl[1,1′-biphenyl]-4-yl)carbonyl]-N-[2-(1-piperidinyl)ethyl]-10,11-dihydro-5H-pyrrolo[2,1-c][1,4]benzodiazepine-3-carboxamide], with 15%. As for `COc1cccc(-c2ccc(C(=O)N3Cc4ccc(C(=O)NCCC5CCCN5C)n4Cc4ccccc43)cc2C)c1` (stereo not drawn) [Example 164, 10-[(3′-Methoxy-2-methyl[1′1′-biphenyl]-4-yl)carbonyl]-N-[2-(1-methyl-2-pyrrolidinyl)ethyl]-10,11-dihydro-5H-pyrrolo[2,1-c][1,4]benzodiazepine-3-carboxamide], the “V2 % inhibition @ 100 nM” value is 16%.
